# Columns and labels:
# ERβ = target: T1, ERβ (Homo sapiens, UniProt Q92731); assay: Estrogenicity reporter gene bioassay (luciferase activity) in HELN-ERβ cells; type: cell-based
# T1 construct: expressed in transfected cells; host or cells: HeLa (HELN-ERβ)
# Source text: (§1) Briefly, the transactivation bioassay (Reporter gene assay) used are based on the use of breast and uterine cancer cell lines transfected with different native or modified hormone receptors. The resulting cell lines further contain a reporter gene regulated by estrogens through the estrogen response element, the globin promoter and the luciferase gene.
# HELN-ERα and HELN-ERβ cell lines were obtained by means of transfecting the HeLa uterine cancer cell line. In a first phase, said cells were transfected with an estrogen sensitive response element and then with the estrogen receptor alpha or beta (ERα or ERβ). The selection of clones resistant to geneticin and puromycin was performed using a concentration of 1 mg/mL and 0.5 mg/mL, respectively. The maintenance medium as well as the experimental medium of these 2 cell lines is DMEM F12 without phenol red supplemented with 6% of FBS (lacking of estrogens), 1% of penicillin / streptomycin, 1 mg/mL of geneticin and 0.5 µg/mL of puromycin.
# (§2) The cells were seeded at a density of 5x10^4 cells per well in white opaque 96 well plates in 150 µL of experimental medium. After 8 hours, the compounds to be assayed (p-nitrolophine and estradiol) were prepared (concentrated 4x) in the same medium and were added to each well (50 µl). The cells were incubated for 16 hours at 37°C. At the end of the incubation, the medium was removed and replaced with fresh medium containing […] luciferin [at that concentration, luciferin diffuses into cell producing a luminescent signal which is stable after 5 minutes and for at least 2 hours]. The plates were then introduced in the luminometer to measure the luminescence for 2 seconds. A YicroBeta Trilux luminometer (EGG Wallac) apparatus was used to detect luciferase activity.
# (§3) The assays were preformed in quadruple for each concentration (0.01-10 µM) in at least three independent experiments. […] The values of luciferase activity obtained were analyzed using the one-way ANOVA statistic test. The differences were considered significant when P was less than […] (P < 0.05).
# [1] = Specific molar absorptivity of p-nitrolophine in MeOH at 379 nm; type: physicochemical
# Procedure: As a preliminary step, in the case of p-nitrolophine the specific molar absorptivity of the molecule (ε) (A^11) was determined. To that end, 50.4 mg of p-nitrolophine were weight, they were dissolved in 100.0 mL of MeOH (ppa); 4 dilutions were then performed by taking 1.0, 2.0, 5.0 and 10.0 mL from this mother liquor and topping up each of them to a volume of 100.0 ml with MeOH (ppa). […]
# The slope of the straight line obtained from these points (Y= 16.717x + 0.03; R2 = 0.9993) therefore coincides with the value of specific molar absorptivity of p-nitrolophine at 379 nm ε(379nm) = 16.717 A.U.L/mol [formula]
# [2] = target: T2, estrogen receptor alpha (ERα) (Homo sapiens, UniProt P03372); assay: Estrogenicity reporter gene bioassay (luciferase activity) in MELN cells; type: cell-based
# T2 construct: which endogenously express the estrogen receptor alpha (ERα); endogenous in cells; host or cells: MELN (MCF-7 stably transfected with ERE-βGlob-Luc-SV-Neo)
# T2 sequence (P03372 1-595): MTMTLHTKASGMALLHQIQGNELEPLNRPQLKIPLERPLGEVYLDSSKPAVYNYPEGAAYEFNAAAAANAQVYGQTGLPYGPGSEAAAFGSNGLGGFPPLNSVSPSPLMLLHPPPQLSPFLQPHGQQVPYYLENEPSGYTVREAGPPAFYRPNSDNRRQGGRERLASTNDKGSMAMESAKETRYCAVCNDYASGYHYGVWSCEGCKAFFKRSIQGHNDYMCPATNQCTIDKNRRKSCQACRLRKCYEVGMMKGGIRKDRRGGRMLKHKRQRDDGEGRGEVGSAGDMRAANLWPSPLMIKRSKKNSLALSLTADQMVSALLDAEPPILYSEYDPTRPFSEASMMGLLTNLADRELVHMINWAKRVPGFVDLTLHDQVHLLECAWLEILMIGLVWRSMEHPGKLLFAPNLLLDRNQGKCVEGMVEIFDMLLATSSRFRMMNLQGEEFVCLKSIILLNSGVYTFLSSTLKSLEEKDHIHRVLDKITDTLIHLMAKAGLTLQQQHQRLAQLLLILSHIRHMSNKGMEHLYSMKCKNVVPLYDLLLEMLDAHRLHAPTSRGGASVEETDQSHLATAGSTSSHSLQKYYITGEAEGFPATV
# Source text: as §1
# MELN cells were obtained by means of transfecting the MCF-7 breast cancer cell line [which endogenously express the estrogen receptor alpha (ERα)] with an estrogen sensitive response element (ERE-βGlob-Luc-SV-Neo). The selection of clones resistant to geneticin was performed using a concentration of 1 mg/mL. The maintenance medium for this cell line is DMEM F12 (Dulbecco's modified Eagle medium) with phenol red supplemented with 10% FBS, 1% of penicillin/streptomycin and 1 mg/mL of geneticin. Due to the estrogenic activity of the phenol red and FBS, the experiments are preformed in medium known as experimental medium, i.e., a culture medium without phenol red and with FBS lacking of estrogens. The experimental medium for this line is DMEM without phenol red supplemented with 3% of FBS treated with carbon-dextran.
# as §2, §3
# [3] = Absorption spectrum in methanol (195 - 400 nm); type: physicochemical; conditions: peak wavelength, 10 mg/ml
# Procedure: In order to determine the absorption spectrum, a solution of 10 mg/ml of methanol was prepared from each of the substances. The methanol in turn was used to adjust the zero absorbance in each of the wavelengths in the range of 195 - 400 nm.
# T1 sequence (Q92731 whole entry, species assumed): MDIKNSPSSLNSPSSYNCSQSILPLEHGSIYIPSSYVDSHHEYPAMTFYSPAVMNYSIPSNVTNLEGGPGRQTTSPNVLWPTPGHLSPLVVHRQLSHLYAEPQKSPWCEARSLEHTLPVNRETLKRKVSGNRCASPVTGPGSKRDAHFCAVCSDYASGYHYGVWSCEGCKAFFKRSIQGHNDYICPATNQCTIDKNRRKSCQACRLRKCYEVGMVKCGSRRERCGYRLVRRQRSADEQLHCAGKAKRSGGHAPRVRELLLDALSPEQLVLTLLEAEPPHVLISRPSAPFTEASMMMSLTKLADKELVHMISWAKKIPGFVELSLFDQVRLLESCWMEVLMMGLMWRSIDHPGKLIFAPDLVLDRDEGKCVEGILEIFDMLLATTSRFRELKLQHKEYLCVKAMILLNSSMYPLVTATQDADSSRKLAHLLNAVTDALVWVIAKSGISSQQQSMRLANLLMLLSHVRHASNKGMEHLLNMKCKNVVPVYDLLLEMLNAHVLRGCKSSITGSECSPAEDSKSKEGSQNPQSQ
compound,measurement,setting,value
"O=[N+]([O-])c1ccc(-c2nc(-c3ccccc3)c(-c3ccccc3)[nH]2)cc1 [p-nitrolophine, 2-(4-nitrophenyl)-4,5-diphenyl-1H-imidazole]",activity at 0.01 µM,ERβ,9.6 ± 1.4%
same,activity at 0.03 µM,ERβ,10 ± 0.8%
same,activity at 0.1 µM,ERβ,10.2 ± 1.3%
same,activity at 0.3 µM,ERβ,10.3 ± 1.1%
same,activity at 1 µM,ERβ,10.1 ± 1.3%
same,activity at 3 µM,ERβ,10.2 ± 1.9%
same,activity at 10 µM,ERβ,10.6 ± 1.2%
same,estrogenicity,"ERβ; HELN-ERβ line, conclusion in words",not an estrogenic compound
same,specific molar absorptivity ε(379nm),"[1]; 379 nm, slope of the straight line",16.717 A.U.L/mol
same,Abs. at 379 nm (A.U.),[1]; Concentration (mol) 0.0000147,0.2572 A.U.
same,Abs. at 379 nm (A.U.),[1]; Concentration (mol) 0.00002953,0.5214 A.U.
same,Abs. at 379 nm (A.U.),[1]; Concentration (mol) 0.00007382,1.301 A.U.
same,Abs. at 379 nm (A.U.),[1]; Concentration (mol) 0.00014764,2.4819 A.U.
same,activity at 0.01 µM,[2],15.2 ± 0.6%
same,activity at 0.03 µM,[2],15.3 ± 0.5%
same,activity at 0.1 µM,[2],15.6 ± 0.3%
same,activity at 0.3 µM,[2],15.5 ± 0.9%
same,activity at 1 µM,[2],16 ± 0.4%
same,activity at 3 µM,[2],15.2 ± 0.4%
same,activity at 10 µM,[2],15.6 ± 0.9%
same,estrogenicity,"[2]; MELN cells, up to 10 µM, conclusion in words",not an estrogenic compound
same,maximum absorption,[3],379 nm
